# Read-outs that look alike come from different tables or passages of the source.
# Experiments:
# [1] = tested on: American (Periplaneta americana) and German (Blattella germanica) cockroaches; assay: Knockdown and mortality of cockroaches in sealed jar (both species); assay type: in vivo; settings: 50 μl on cotton ball in sealed 0.95-liter jar; for Knockdown of cockroaches: within 1 hour after treatment
# Procedure: (§1) In this experiment both the insecticidal and nematicidal properties of iodinated hydrocarbons were compared. In determining the insecticidal properties of the iodinated hydrocarbons, both American (Periplaneta americana) and German (Blattella germanica) cockroaches were used. Groups of cockroaches were confined in 0.95-liter glass jars with a small cotton ball. Exactly 50 μl of a test chemical was applied to the cotton ball and the jar was sealed.
# [2] = tested on: Pratylenchus brachyurus; assay: Greenhouse nematicide test, iodomethane vs ethylene diiodide (Experiment 5); assay type: in vivo
# Procedure: (§2) In this experiment, the nematotoxic properties of ethylene diiodide were compared to that of methyl iodide. The nematicidal efficacies of iodomethane [IM] and ethylene diiodide [EDI] were compared in a greenhouse experiment using field soil infested with Meloidogyne arenaria, Pratylenchus brachyurus, and Paratrichodorus christiei.
# (§3) Each compound was added to soil at rates of 100, 200, 300 and 400 mg s/kg of soil. The soil was potted and kept moist for two weeks when it was planted with ‘Brim’ soybean after taking samples for nematological analyses. After eight weeks of growth, the plants were removed from the pots and soil samples taken. Data was collected on weights of fresh roots and shoots, general appearance of roots [root condition index] and root gall formation by M. arenaria. All EDI rates eliminated M. arenaria juveniles [J2] and populations of the other nematodes in the preplant samples; IM reduced J2 numbers by 50-70%, eliminated P. christiei with the 400 mg rate, but had no effect on P. brachyurus. […] The general appearance of roots was improved by EDI at rates ≦300 mg, but MI had no effect on the variable. […] M. arenaria J2 populations in roots were reduced by 60-70% by MI treatments, but the compound had no effect on root populations of P. brachyurus. MI had no effect on J2 populations in the final soil samples, although it suppressed P. christiei, by 50-70%.
# [3] = tested on: Meloidogyne arenaria; assay: as above; assay type: in vivo
# Procedure: as §2, §3
# [4] = tested on: Paratrichodorus christiei; assay: as above; assay type: in vivo
# Procedure: as §2, §3
# [5] = tested on: Cowpea weevil, Callosobruchus maculatus (F.); assay: Fumigant toxicity, Cowpea weevil; assay type: in vivo; set-up: concentration or dose not given beside the values; settings: 30 adults
# Procedure: (§4) Shown in Table 2 is the toxicity of both monoiodinated and diiodinated hydrocarbons to the German and American cockroach and the Cowpea weevil after 24 hours of exposure.
# [6] = tested on: German cockroach, Blattella germanica (L.); assay: Fumigant toxicity in sealed glass jar, German cockroach; assay type: in vivo; settings: Blattella germanica, inhaled or nasal, 30-60 adult males
# Procedure: (§5) As shown below, Table 1 depicts the toxicity of both monoiodinated and diiodinated hydrocarbons to both the German and the American cockroach after 1 hour of exposure.
# as §4
# as §1, with “sealed. Knockdown, defined as the inability to walk in a coordinated manner, and mortality were assessed every 15 minutes for the first hour and hourly thereafter for 8 hours and again after 24 hours.” for “sealed.”
# [7] = tested on: American cockroach, Periplaneta americana (L.); assay: Fumigant toxicity in sealed glass jar, American cockroach; assay type: in vivo; settings: Periplaneta americana, inhaled or nasal, 8-36 adult males
# Procedure: as §5, §4
# as §1, with “sealed. Knockdown, defined as the inability to walk in a coordinated manner, and mortality were assessed every 15 minutes for the first hour and hourly thereafter for 8 hours and again after 24 hours.” for “sealed.”
# [8] = tested on: 'Brim' soybean; assay: Soybean growth and root condition in treated soil (Experiment 5); assay type: in vivo; settings: rates 100-400 mg/kg
# Procedure: as §2, §3
# [9] = tested on: cyst [Heterodera glycines]; assay: Greenhouse nematicide test, iodinated C1-C3 hydrocarbons (Experiment 4); assay type: in vivo
# Procedure: (§6) In this experiment, the nematicidal properties of low molecular weight iodinated hydrocarbons were investigated. The nematicidal properties of iodinated C1-C3 hydrocarbons were evaluated in greenhouse experiments with field soil infested with root-knot [Meloidogyne arenaria] and cyst [Heterodera glycines] nematodes. lodomethane, di-iodomethane, iodoethane, di-iodoethane, and 1-iodopropane were added to soil at rates of 0.1, 0.2 and 0.4 ml/kg soil.
# (§7) The treated soil was kept moist for 10 days when soil samples were taken for nematode analysis and ‘Brim’ soybean [Glycine max] planted. Soybeans were allowed to grow for 8 weeks and then were removed from the soil to determine plant growth, root-knot indices and the number of galls generated by M arenaria. […] All compounds except 1-iodopropane increased fresh shoot weight when applied at ≧0.1 ml/kg soil.
# [10] = tested on: root-knot [Meloidogyne arenaria]; assay: as above; assay type: in vivo
# Procedure: as §6, §7
# [11] = tested on: reniform nematode [Rotylenchulus reniformis]; assay: Greenhouse nematicide test in cotton field soil, covered and uncovered pots (Experiment 6, FIGS. 1-4); assay type: in vivo; settings: for Control of the nematode in soil: covered and uncovered, all rates up to 12 mg per kg of soil
# Excerpt: FIGS. 2 and 3 illustrate the effectiveness of the diiodoethane and diiodopropane in eliminating the nematode (Rotylenchulus reniformis) from a soil sample. The “x” axis on the top row illustrates the quantity of iodinated hydrocarbon in milligrams per kilogram of soil. The next two rows below the “x” axis indicate the number of nematodes per 100 milliliters of soil, which is also indicated on the “y” axis. In FIG. 2, 1,2-diiodoethane was applied to the soil both in a covered state and an uncovered state. […] This is believed to be so because of the volatility of 1,2 diiodoethane, wherein the cover slows down the rate at which the compound evaporates into the atmosphere.
# In this experiment, the pesticidal and herbicidal properties of volatile, low molecular weight, iodinated hydrocarbons were investigated. The relative nematicidal efficacy of iodomethane [C1], 1,2-diiodoethane [C2], 1,3-diiodopropane [C3] and 1,4-diiodobutane [C4] was studied in greenhouse experiments with soil from a cotton field infested with the reniform nematode [Rotylenchulus reniformis]. The chemicals were obtained from Aldrich, Milwaukee, U.S.A. Emulsifiable concentrates of the compounds were prepared by dilution in acetone containing an emulsogen.
# (§8) For each chemical, an aqueous emulsion with 0.2% [w/w] of the compound was prepared and was applied to soil at rates of 2, 4, 6, 8, 10, and 12 mgs a.i./Kg soil. The treated soil was mixed and transferred to 1L capacity 10-cm diameter cylindrical pots. Pots with untreated soil [control] and with treated soil were placed on a greenhouse bench in a randomized complete block design. Each treatment was represented by 14 replications [pots], one half of which were left uncovered, and the other 7 were covered with polyethylene plastic bags [approx. 1 mil thickness] retained with a rubber around the pots. Soil samples for nematological analysis [salad bowl incubation technique] were collected 7-10 days after application of the materials. […] In covered pots, applications of the material were particularly effective resulting in 100% kill with the 10 and 12 mg rates. All dosages of C3 and C4 eliminated the nematode in covered pots. […] In a greenhouse experiment of similar design to the nematicide experiments, the C3 and C4 emulsions were applied at rates of 2-20 mgs a.i./Kg soil to a soil infested with crabgrass [Digitaria sanguinalis], purple nutsedge [Cyperus rotundus], Jimson weed [Datura stramonium] and a variety of other weed species. All pots were covered, and the number of weeds were counted 7, 14 and 30 days after application of the chemicals.
# [12] = tested on: crabgrass [Digitaria sanguinalis], purple nutsedge [Cyperus rotundus], Jimson weed [Datura stramonium] and a variety of other weed species; assay: Greenhouse herbicide test in weed-infested potted soil (Experiment 6, FIG. 6); assay type: in vivo; settings: up to 20 mg per kg of soil; one week
# Procedure: Illustrated in FIGS. 6 and 7 are the herbicidal properties of the present invention. In FIG. 6, 1,3-diiodopropane and 1,4-diiodobutane were added to a soil sample contained in a pot, wherein the number of weeds were counted at the end of a one week period. The top row of the “x” axis plots the amount in milligrams of iodinated hydrocarbon added per kilogram of soil. The two rows below the top row depict the number of weeds found after a week, which is also plotted on the “y” axis. […] It is inferred that greater dosages would eliminate an even greater number of weeds. FIG. 7 depicts similar results except that the weed controlled was only one variety: crabgrass. […] It is also inferred that dosages larger than 20 mg of iodinated hydrocarbons would further eliminate an even greater number of crabgrass plants.
# as §8
# [13] = tested on: German cockroach, Blattella germanica (L.); assay: Fumigant toxicity in sealed glass jar, German cockroach; settings: in vivo
# [14] = tested on: Meloidogyne arenaria; assay: Greenhouse nematicide test, diiodinated C2-C8 hydrocarbons in infested field soil (Experiments 1 and 2); assay type: in vivo; settings: rates ≧5.0 mg
# Procedure: (§9) Additionally, the nematicidal properties of iodinated hydrocarbons were investigated in greenhouse experiments with field soil infested with Meloidogyne arenaria and Heterodera Glycines. Chemicals were added directly to infested solid at rates <100 mg/Kg soil. Treated soil was kept moist (approximately 60 percent field capacity) and uncovered for 7-10 days when samples were collected, and the pots were planted with ‘Brim’ soybean, Glycine max. […] 1,2-diiodoethane (C2), 1,3-diiodopropane (C3), 1,4-diiodobutane (C4), 1,5-diiodopentane (C5), 1,6-diiodohexane (C6), and […] were applied to soil rates of 2.5, 5.0, 7.5, and 10 mg/Kg soil. All rates of C2 and C8 were ineffective in reducing M. arenaria juvenile (J2) populations in preplant samples. This was also true for C2 and J2 populations of H. glycines; however, […] rates ≧5.0 mg suppressed J2 populations of H. glycines. […] H. glycines J2 numbers in final soil samples were generally inversely related to rates for C3-C8. […] Applications of C3-C6 to soil increased shoot weights in a manner directly related to dosages but only in a curvilinear pattern.
# (§10) In this experiment, the nematicidal properties of various diiodinated hydrocarbons were compared. The nematicidal properties of diiodinated C2-C8 normal hydrocarbons was assessed in a greenhouse experiment with field soil infested with Meloidogyne arenaria [Ma] and Heterodera glycines [Hg]. 1,2-diiodoethane [C2], 1,3-diiodopropane [C3], 1,4-diiodobutane [C4], 1.5-diiodopentane [C5], 1,6-diiodohexane [C6] and 1,8-diiodooctane [C8] were applied to soil at rates of 2.5, 5.0, 7.5, and 10.0 mgs/kg soil. The potted soil was kept moist in a greenhouse for 10 days when preplant samples were collected for analysis, and the pots were planted with ‘Brim’ soybean [Glycine max]. After 7 weeks of growth, the plants were removed and final soil samples taken. Data was collected on weights of fresh roots and shoots, root galling by Ma, and numbers of nematodes in soil and roots. All rates of C2 and C8 were ineffective in reducing Ma juvenile [J2] populations in the preplant samples. This was also true for C2 and J2 populations of Hg; however, C8 rates ≧5.0 mg suppressed J2 populations of Hg. […] Hg J2 numbers in final soil samples were generally inversely related to rates for C3-C8. This pattern of suppression in J2 numbers was also applicable to Ma in the final soil samples but only for C3-C6. […] Applications of C3-C6 to soil increased shoot weights in a manner directly related to dosages but non-linear in pattern.
# [15] = tested on: Heterodera glycines; assay: as above; assay type: in vivo; settings: rates ≧5.0 mg
# Procedure: as §9, §10
# [16] = 1 h exposure, read-out: % Mortality after 1 h exposure, German cockroach
# [17] = 24 h exposure, read-out: % Mortality after 24 h exposure, German cockroach
# [18] = 1 h exposure, read-out: % Mortality after 1 h exposure, American cockroach
# [19] = 24 h exposure, read-out: % Mortality after 24 h exposure, American cockroach
structure (smiles),measurement,setting,value
"CI [iodomethane, reference compound]",Knockdown of cockroaches,[1],100%
same,Root populations of P. brachyurus,[2]; after eight weeks of growth,no effect
same,P. brachyurus populations in preplant samples,[2]; rates 100-400 mg/kg of soil,no effect
same,Reduction of M. arenaria J2 populations in roots,[3]; after eight weeks of growth,60-70%
same,J2 populations in the final soil samples,[3]; final soil samples,no effect
same,Reduction of M. arenaria J2 numbers in preplant samples,[3]; rates 100-400 mg/kg of soil,50-70%
same,Galls in roots of plants from treated soil (M. arenaria),[3]; soybean after eight weeks,significant numbers
same,P. christiei populations in preplant samples,[4]; 400 mg rate,eliminated
same,Suppression of P. christiei in final soil samples,[4]; final soil samples,50-70%
same,"% Mortality after 24 h exposure, Cowpea weevil",[5],100%
same,mortality at 50 µL/jar,[6]; [16],100%
same,mortality at 50 µL/jar,[6]; [17],100%
same,mortality at 50 µL/jar,[7]; [18],100%
same,mortality at 50 µL/jar,[7]; [19],100%
same,General appearance of roots [root condition index],[8],no effect
same,H. glycines J2 populations in soil,[9]; 0.4 ml rate,reduced
same,H. glycines J2 populations in soil,[9]; rates lower than 0.4 ml,ineffective
same,Root-knot nematode juveniles in soil,[10]; 0.4 ml rate,eliminated
same,Gall formation by M. arenaria,[10]; applied at ≧0.2 ml/kg soil,Significant suppression
same,Root-knot nematode juveniles in soil,[10]; rates lower than 0.4 ml,ineffective
same,Control of the nematode in soil,[11]; listed as C1,failed to control
same,Control of the nematode in soil,[11]; listed as methyl iodide,ineffective
"ICCCCI [1,4-diiodobutane]",Number of weeds found in the pots as the dosage is increased (FIG. 6),[12],steady decline
same,Repellency to German cockroaches,[13],repellent
same,"% Mortality after 24 h exposure, Cowpea weevil",[5],47%
same,M. arenaria J2 populations in preplant samples,[14],virtually eliminated
same,H. glycines J2 populations in preplant samples,[15],virtually eliminated
same,mortality at 50 µL/jar,[6]; [16],0%
same,mortality at 50 µL/jar,[6]; [17],70%
same,mortality at 50 µL/jar,[7]; [18],0%
same,mortality at 50 µL/jar,[7]; [19],33%
same,"Nematode in soil, covered pots","[11]; covered pots, all dosages (2-12 mgs a.i./Kg soil)",eliminated
same,Dose that eliminates the nematodes,[11]; uncovered and covered state,about 10 mg per kg of soil
same,Mortality of the nematode,"[11]; uncovered pots, 3 highest rates",100%
ICI [diiodomethane],Time to 100 percent mortality of cockroaches,[1],≤ 4 h
same,Knockdown of cockroaches,[1],≈ 40%
same,Repellency to German cockroaches,[13],repellent
same,"% Mortality after 24 h exposure, Cowpea weevil",[5],100%
same,mortality at 50 µL/jar,[6]; [16],40%
same,mortality at 50 µL/jar,[6]; [17],100%
same,mortality at 50 µL/jar,[7]; [18],39%
same,mortality at 50 µL/jar,[7]; [19],100%
same,H. glycines J2 populations in soil,"[9]; 10 days after application, all dosages (0.1, 0.2, 0.4 ml/kg soil)",eliminated

# From US6465527B1, “Iodinated hydrocarbon pesticide” (priority 1999, dated 2002)
